For test [1], the system named is STING signaling. As to the kind of experiment: Confocal analysis of STING trafficking and IRF3 translocation in hTERT cells. The class given is cell-based, human. As to conditions: 6 hours after ISD transfection. The procedure: FIG. 2E are photographs showing confocal analysis of STING trafficking using anti-Sting performed at 6 hours after ISD transfection with Y1+220/without 220, Mock is shown (210), ISD treatment only (220) was used as control, treatment same as in FIG. 2A, according to an embodiment of the invention;
Example 10: Immunofluorescence Microscopy: Cells were cultured and treated in their appropriate media on Lab-Tek II chamber slides. Cell were fixed with 4% paraformaldehyde for 15 minutes in at 37° C. and permeabilized with 0.05% Triton X-100 for 5 minutes at room temperature. Immunostaining was performed with rabbit-anti-STING polyclonal, rabbit-anti-IRF3 (Santa Cruz Biotechnology) or rabbit-anti-p65 (Cell Signaling) followed by fluorescence conjugated secondary antibodies (FITC-goat-anti-rabbit) (Invitrogen).

Another test relates to TREX1-deficient mice. As to the kind of experiment: Treatment of TREX1 knockout (TKO) mice: survival and heart histopathology. Format: in vivo, mouse. As for the experimental part:
Example 12: Mouse Treatment: Trex1 Hetero knockout mice (Trex1^+/−) were generated by crossing the hetero mice. Mouse genotypes from tail biopsies were determined using Real Time PCR with specific probes designed for each gene by commercial vendor (Transnetyx). Trex1 KO (TKO) mice (4-5 weeks old) were intraperitoneally injected with 25 μg Z811 per mouse in 200 μL 1% DMSO in PBS. The mice were injected three times a week for 5 months. The survival rates were evaluated.
Example 13: Histopathology. Mice are sacrificed and the heart tissues were fixed in 10% formalin for 48 hours.

Test [2] concerns STING signaling. Kind of test: Western blot of STING, TBK1 and IRF3 phosphorylation in MEF cells. The class given is cell-based, murine. As to conditions: cytosolic DNA. As for the experimental part: Example 8: Immunoblot analysis: Equal amounts of proteins were resolved on sodium dodecyl sulfate (SDS)-Polyacrylamide gels and then transferred to polyvinylidene fluoride (PVDF) membranes (Millipore). After blocking with 5% Blocking Reagent, membranes were incubated with various primary antibodies (and appropriate secondary antibodies). The image was resolved using an enhanced chemiluminescence system ECL (Thermo Scientific) and detected by autoradiography (Kodak). Antibodies: rabbit polyclonal antibody against STING was developed in our laboratory as described previously in Ishikawa et al, 2008; other antibodies were obtained from following sources: β-actin (Sigma Aldrich), p-IRF3 (Cell Signaling), IRF3 (Santa Cruz Biotechnology), p-p65 (Cell Signaling), p65 (Cell Signaling), p-TBK1 (Cell Signaling), TBK1 (Abcam), cGAS (Cell Signaling).
A general note: Immunoblotting shows a protein as a band on a membrane.

The subject of test [3] is STING signaling. As to the kind of experiment: Luciferase live cell assay, type I IFN promoter in hTERT-pIFNβ-Glu cells after ISD transfection. Format: cell-based, human. As for the experimental part:
Inhibition of IFNβ expression was measured by Luciferase induction at 24 hours after transfection of ISD, Mock is shown (210), ISD treatment only (220) was used as a control, according to an embodiment of the invention;
Example 1: Identification of small molecule antagonists of STING. In the presence of cytosolic DNA species, STING becomes activated to drive the transcription of cytokines such as type I IFN. Compounds binding to STING via TSA were subsequently examined for their ability to prevent cytosolic DNA species from activating the type I interferon (IFN) promoter, using a live cell assay. This assay comprised immortalized human fibroblasts that were stably transfected with the type I IFN promoter driving luciferase as well as the CMV promoter driving SEAP (hTERT-pIFNβ-Glu). The live cell assay has previously been disclosed in PCT/JS2019/025380 entitled IFN-βETA REPORTER SYSTEM FOR IMMORTALIZED PRIMARY CELLS inventor Glen N. Barber, which was filed Apr. 2, 2018 and published as WO2019195285, and which is herein incorporated by reference in its entirety and for all purposes. The ability of the small molecules to prevent activation of the type I IFN promoter and the transcription of luciferase, but not SEAP in response to cytosolic DNA species was assessed. The activation of STING, typically by CDNs, in turn activates the transcription factors NF-κB and IRF3, both of which are required to induce the transcriptional stimulation of the Type I IFN promoter, but not the CMV promoter as IRF3 and NF-kB transcription factor binding sites are not contained in the CMV promoter. The assay identified the small molecule Compound Y1 in the first screen (HTS), where the level of luciferase was not able to activate the type I IFN promoter or induce the expression of luciferase (see Table I).
Example 4: hTERT-BJ1 Telomerase Fibroblasts (hTERT) were originally purchased from Clontech and were cultured in 4:1 ratio of DMEM:Medium 199 supplement with 10% FBS, 4 mM L-Glutamine and 1 mM sodium pyruvate at 37° C. in a 5% CO2-humidified atmosphere. hTERT-BJ1 Telomerase Fibroblasts stably expressing the luciferase gene under the control of the interferon-beta promoter and SEAP gene under control of the CMV promoter) (hTERT-pIFNβ-Glu) were generated by the Barber laboratory.
Example 7: Luciferase assay: hTERT-BJ1 Telomerase Fibroblasts stably expressing the luciferase gene under the control of the interferon-beta promoter and SEAP gene under control of the CMV promoter) (hTERT-pIFNβ-Glu) were generated by the Barber laboratory. Luciferase assay was performed using Secrete-Pair Dual Luminescence Assay Kit from GeneCopoeia following the manufacturer's protocol.

In test [4] the test system is STING signaling. As to the kind of experiment: qPCR of Cxcl10 / Cxcl5 in MEF cells after ISD transfection. Format: cell-based, murine. As for the experimental part:
MEFs were obtained from E13.5 embryos by a standard procedure. Bone Marrow Derived Macro-phages (BMDM) were isolated from hind-limb femurs of 8-10 weeks old WT and Trex1 KO (TKO) mice. The hematopoietic cells from the bone marrow were cultured in complete DMEM (Invitrogen) including 10 ng/ml of Mouse Recombinant Colony-Stimulating Factor (M-CSF, R&D Systems) for 10 to 14 days.
(§1) Example 11: qPCR total RNA were reverse-transcribed using M-MLV Reverse Transcriptase (Promega). Real-time PCR was performed using Taqman Gene Expression Assay (Applied Biosystems) for innate immune genes and inflammatory cytokines.
(In qPCR the cycle at which signal appears reflects the starting amount.)

In test [5] the test system is STING signaling. Kind of test: qPCR of IFNβ1 / Cxcl10 in normal hTERT cells after ISD transfection. The class given is cell-based, human. As to conditions: normal hTERT cells stimulated with ISD; 50 μM, 25 μM or 5 μM. The procedure: as §1

Entries after “also recorded” stand apart in the source; their conditions may differ.

For the compound `Cc1cccc(C(=O)Nc2c(C#N)c3nc4ccccc4nc3n2CCc2ccccc2)c1Cl` [Compound Y9, 2-chloro-N-[3-cyano-1-(2-phenylethyl)-1H-pyrrolo [2,3-β]quinoxalin-2-yl]-3-methylbenzamide], in the test on STING signaling [1], the “IRF3 translocation (confocal analysis)” value was “reproducibly prevented STING trafficking and IRF3 phosphorylation”; the “STING trafficking (confocal analysis)” value was “reproducibly prevented STING trafficking and IRF3 phosphorylation”. Further, in the test on TREX1-deficient mice, the “inflammation in the heart (H&E staining)” value was “Less inflammation in the heart”. In the test on TREX1-deficient mice (intraperitoneal, 25 μg/mouse, 5 months, compared to mock treated), the “survival of TREX1-deficient mice” value is recorded as “extend the survival of TREX1-deficient mice”. In addition, in the test on STING signaling [2], the “phosphorylation of TBK1, IRF3 and STING (Western blot)” value was “can prevent the phosphorylation of TBK1 and IRF3 as well as STING phosphorylation”. Moreover, in the test on STING signaling [3] (hTERT-pIFNβ-Glu cells, 50 μM or 25 μM, in response to ISD), the “inhibitory activity of the type I IFN promoter (luciferase induction)” value was “showed robust inhibitory activity of the type I IFN promoter”. Besides, in the test with STING signaling [3] (test of the 25 novel analogs), the “criteria to inhibit STING dependent signaling (type I IFN promoter in human cells)” value was “found to meet the criteria to inhibit STING dependent signaling; also recorded: found to meet the criteria to inhibit STING dependent signaling and showed the most effective inhibitory activity”. Besides, the “Cxcl10 production in response to ISD (qPCR)” value in the test on STING signaling [4] was “impede the production of Cxcl10”. The “production of STING-inducible cytokine Cxcl10 (qPCR)” value with STING signaling [5] was “robustly inhibited”.

For the origin of these results see patent publication US12410174B1, “Small molecular inhibitors of sting signaling compositions and methods of use” (TYERELL IMMUNOTHERAPEUTICS INC, priority 2020, dated 2025).
